According to patent US5985603A, “P2x receptor DNA and protein sequence” (Glaxo Group Limited, priority 1994, dated 1999):

What was measured:
[1] = molecular target: T1, rat superior cervical ganglion P2X receptor (clone 3) (Rattus norvegicus, UniProt P51577); experiment: functional properties of cloned P2X receptors (electrical recordings): clone 3; type: cell-based
T1 construct: The insert appeared to be a full length cDNA; expressed in transfected cells; host or cells: HEK293 cells transfected with pcDNA3 construct p464 (also oocytes injected with in vitro transcribed RNA)
T1 sequence (P51577 1-388): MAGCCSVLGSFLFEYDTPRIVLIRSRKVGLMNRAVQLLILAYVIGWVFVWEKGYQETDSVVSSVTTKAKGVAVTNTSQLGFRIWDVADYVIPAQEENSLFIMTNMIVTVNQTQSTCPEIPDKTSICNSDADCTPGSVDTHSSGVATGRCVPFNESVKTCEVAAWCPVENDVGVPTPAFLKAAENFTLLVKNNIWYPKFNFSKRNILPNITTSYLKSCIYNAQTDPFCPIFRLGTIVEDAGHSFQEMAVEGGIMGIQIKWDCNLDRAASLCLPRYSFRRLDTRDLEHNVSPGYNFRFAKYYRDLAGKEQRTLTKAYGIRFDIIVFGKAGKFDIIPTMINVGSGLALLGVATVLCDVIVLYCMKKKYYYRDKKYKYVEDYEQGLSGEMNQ

[2] = molecular target: T2, rat vas deferens P2X receptor (Rattus norvegicus, UniProt P47824); experiment: electrophysiological recording in CHO cells stably transfected with rat vas deferens P2X receptor; type: cell-based; settings: up to 30 μM
T2 construct: cRNA in Xenopus oocytes; stably transfected CHO cells
T2 sequence (P47824 1-399): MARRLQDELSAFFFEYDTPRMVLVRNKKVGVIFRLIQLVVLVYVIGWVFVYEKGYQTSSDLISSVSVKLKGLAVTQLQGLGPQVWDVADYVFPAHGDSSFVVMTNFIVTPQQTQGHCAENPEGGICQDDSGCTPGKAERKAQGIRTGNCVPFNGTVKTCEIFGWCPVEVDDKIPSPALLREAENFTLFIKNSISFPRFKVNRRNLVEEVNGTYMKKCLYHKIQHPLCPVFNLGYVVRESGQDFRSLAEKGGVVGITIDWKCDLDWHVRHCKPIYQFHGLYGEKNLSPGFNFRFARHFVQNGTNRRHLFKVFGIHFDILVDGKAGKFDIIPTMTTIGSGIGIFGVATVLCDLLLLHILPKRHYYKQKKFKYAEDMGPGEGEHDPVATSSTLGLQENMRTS
Excerpt: CHO cells were stably transfected by a method used for other ion channels (Claudio, Meth. Enzymol. 207 391-408 (1992)). Transfection was confirmed by a) electro-physiological recording and b) radioligand binding. […] [^3 H]αβmethyleneATP binding was more than 600 cpm per million transfected cells with less than 80 cpm nonspecific binding.

P2X-purinoceptor = settings: cited from earlier work
PC12 P2X receptor = molecular target: T3, PC12 P2X receptor (Rattus norvegicus, UniProt P49653); experiment: functional properties of cloned P2X receptors (electrical recordings): PC12; type: cell-based
T3 construct: host or cells: HEK293 cells (oocytes are also named for the functional characterisation of clone 3)
T3 sequence (P49653 1-472): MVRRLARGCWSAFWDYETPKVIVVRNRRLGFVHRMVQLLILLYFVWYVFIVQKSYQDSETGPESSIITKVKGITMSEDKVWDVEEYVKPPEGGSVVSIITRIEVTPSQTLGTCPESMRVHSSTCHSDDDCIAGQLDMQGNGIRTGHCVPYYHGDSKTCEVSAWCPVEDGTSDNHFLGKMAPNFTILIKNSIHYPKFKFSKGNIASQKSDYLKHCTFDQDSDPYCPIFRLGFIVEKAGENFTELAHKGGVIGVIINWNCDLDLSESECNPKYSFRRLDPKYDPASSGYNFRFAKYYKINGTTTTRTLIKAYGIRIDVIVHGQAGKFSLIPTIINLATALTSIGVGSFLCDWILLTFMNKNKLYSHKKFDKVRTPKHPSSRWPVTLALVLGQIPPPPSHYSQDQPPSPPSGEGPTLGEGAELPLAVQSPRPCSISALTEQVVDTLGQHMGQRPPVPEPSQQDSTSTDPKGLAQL

Nc1ncnc2c1ncn2[C@@H]1O[C@H](COP(=O)([O-])OP(=O)([O-])OP(=O)([O-])[O-])[C@@H](O)[C@H]1O.[Mg+2].[Mg+2] [ATP, adenosine 5'-triphosphate magnesium salt]
EC50 [1]: 11 µM | decline of currents (desensitisation) during application ([1]; applications of several seconds): little or no decline during applications of several seconds | rapidly desensitising inward currents, CHO cells responding [2]: rapidly desensitising inward currents in 14 of 14 CHO cells | agonist potency order in whole tissue studies (P2X-purinoceptor): α,β,-meATP >>2MeSATP≥ATP | EC50 (PC12 P2X receptor): 8 µM
